Laboratory results published in patent US10328052B2, “D-proline derivatives as SAP depleting agent” (GlaxoSmithKline Intellectual Property Development Limited, priority 2015, dated 2019).
Read-outs that look alike come from different tables or passages of the source.

Key:
CYP2D6 = molecular target: T1, CYP2D6 (Homo sapiens, UniProt P10635); assay: Cytochrome p450 inhibition, bactosomes, fluorogenic substrate MMC; type: in vitro ADME
T1 construct: purchased Cypex; host or cells: bactosomes (bacterial membranes)
T1 sequence (P10635 whole entry): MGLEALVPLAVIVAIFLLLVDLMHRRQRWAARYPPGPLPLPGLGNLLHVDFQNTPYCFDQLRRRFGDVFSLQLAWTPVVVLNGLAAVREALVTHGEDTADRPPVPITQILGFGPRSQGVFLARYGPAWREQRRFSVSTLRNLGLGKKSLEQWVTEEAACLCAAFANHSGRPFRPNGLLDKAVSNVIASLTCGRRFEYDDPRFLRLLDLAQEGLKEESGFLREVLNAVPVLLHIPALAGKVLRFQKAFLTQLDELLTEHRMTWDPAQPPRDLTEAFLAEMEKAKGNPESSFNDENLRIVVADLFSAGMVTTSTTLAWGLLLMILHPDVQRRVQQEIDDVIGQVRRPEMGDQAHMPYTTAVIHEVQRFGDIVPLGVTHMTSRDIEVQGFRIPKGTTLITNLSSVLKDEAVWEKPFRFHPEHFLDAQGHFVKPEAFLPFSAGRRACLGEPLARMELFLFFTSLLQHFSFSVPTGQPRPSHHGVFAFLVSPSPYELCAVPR
Description: (§1) The assay was designed to evaluate inhibition on cytochrome P450 (CYP) 3A4, 2C9, 2C19, 1A2 and 2D6 enzymes from bactosomes source using fluorogenic substrates. Compound (compound of Formula (I) or Comparator Compound) was dissolved in methanol at 1.65 mM. Daughter solutions were prepared in methanol at 660, 264, 106, 42, 17, 6.8, 2.7, 1.1 and 0.43 μM. NADPH cofactor was prepared with Glucose-6-phosphate (7.8 mg), Glucose-6-phosphate dehydrogenase (6 units), NADP (1.7 mg) per 1 mL in NaHCO3 2%. […]

[1] = Solubility in aqueous media; type: physicochemical; details: thermodynamic from solid, 4 hour timepoint, read-out: Solubility (mg/mL) at 4 hour timepoint
Description: A known quantity of the compound of Formula (I) was weighed into a suitable vessel (e.g. a screw capped clear glass vial) and a known volume of the required media added (e.g. Simulated Gastric Fluid pH 1.6 [SGF], Simulated Fed State Intestinal Fluid pH 6.5 [FeSSIF], Simulated Fasted State Intestinal Fluid pH 6.5 [FaSSIF], Water [Purified Water], or Britton-Robinson buffer). The compound was wetted with the media by vortex mixing for 30 seconds to 1 minute. The sample was then visually observed to ensure that undissolved solid remained present. The sample was transferred to a gentle mixer (such as a roller mixer) and allowed to agitate until the desired time point was reached. At appropriate times the sample was reassessed visually. If all the solid had dissolved the solubility was recorded as >x mg/mL where x is the known weight used divided by the volume added. If undissolved solid remained a portion of the sample was taken and centrifuged to remove the solid leaving a clear supernatant. The supernatant was diluted volumetrically with a suitable diluent to provide an analytical sample of suitable concentration for analysis. This diluted sample was then analysed by a suitable method such as HPLC against a standard(s) of known concentration. The solubility of the compound can then be calculated using a knowledge of the concentration of the standard, the relative response (e.g. peak areas) of the standard and the analytical sample described, and the dilution of the analytical sample.

CYP3A4 = molecular target: T2, CYP3A4 (Homo sapiens, UniProt P08684); assay: Cytochrome p450 inhibition, bactosomes, fluorogenic substrates 7BQ and DEF; type: in vitro ADME; details: for IC50: bactosomes
T2 construct: purchased Cypex; host or cells: bactosomes (bacterial membranes)
T2 sequence (P08684 whole entry): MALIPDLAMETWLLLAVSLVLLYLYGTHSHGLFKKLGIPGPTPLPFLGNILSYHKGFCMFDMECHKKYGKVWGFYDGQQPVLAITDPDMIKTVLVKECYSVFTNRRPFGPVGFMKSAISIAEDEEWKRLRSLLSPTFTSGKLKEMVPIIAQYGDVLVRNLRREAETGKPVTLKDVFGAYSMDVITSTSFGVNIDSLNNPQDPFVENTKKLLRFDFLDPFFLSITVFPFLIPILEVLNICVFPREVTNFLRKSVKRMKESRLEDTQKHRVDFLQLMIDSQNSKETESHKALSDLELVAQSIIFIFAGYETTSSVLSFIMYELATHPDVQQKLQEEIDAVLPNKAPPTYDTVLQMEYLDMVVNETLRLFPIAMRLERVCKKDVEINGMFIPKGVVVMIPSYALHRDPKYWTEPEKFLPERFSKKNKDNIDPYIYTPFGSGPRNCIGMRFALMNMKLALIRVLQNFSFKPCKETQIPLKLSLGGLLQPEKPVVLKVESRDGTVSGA
Description: The assay was designed to evaluate inhibition on cytochrome P450 (CYP) 3A4, 2C9, 2C19, 1A2 and 2D6 enzymes from bactosomes source using fluorogenic substrates. Compound (compound of Formula (I) or Comparator Compound) was dissolved in methanol at 1.65 mM. Daughter solutions were prepared in methanol at 660, 264, 106, 42, 17, 6.8, 2.7, 1.1 and 0.43 μM. NADPH cofactor was prepared with Glucose-6-phosphate (7.8 mg), Glucose-6-phosphate dehydrogenase (6 units), NADP (1.7 mg) per 1 mL in NaHCO3 2%. Substrate Preparation was as Follows: • 7-Methoxy-4-triFluoromethyl Coumarin-3-Acetic acid ethyl ester (FCA): 12.5 mM in acetonitrile • EthoxyResorufin (ER): 0.05 mM in acetonitrile • 4-MethylaminoMethyl-7-Methoxy Coumarin (MMC): 2.5 mM in methanol • 3-Butyryl-7Methoxy Coumarin (BMC): 2.5 mM in DMSO • 7-BenzyloxyQuinoline (7BQ): 2.5 mM in acetonitrile • DiEthoxyFluorescein (DEF): 0.1 mM in acetonitrile Bactosomes (Cypex source) at the concentration of 10 mg of protein per mL were diluted in phosphate buffer 50 mM pH7.4: • 0.33 mL of bactosomes CYP2C9 with 23.8 mL of buffer and 0.11 mL of FCA • 0.33 mL of bactosomes CYP1A2 with 23.6 mL of buffer and 0.275 mL of ER • 0.33 mL of bactosomes CYP2D6 with 23.8 mL of buffer and 0.11 mL of MMC • 0.33 mL of bactosomes CYP2C19 with 23.8 mL of buffer and 0.11 mL of BMC • 0.33 mL of bactosomes CYP3[…] with 23.6 mL of buffer and 0.275 mL of 7BQ • 0.33 mL of bactosomes CYP3[…] with 23.6 mL of buffer and 0.275 mL of DEF Pre-Incubation consisted in mixing 5 μL of compound solution with 220 μL diluted bactosomes and warming it at 37° C. for 10 min. Incubation was started with the addition of 25 μL of NADPH. Then fluorescence of substrate metabolite was read in a SAFIRE instrument (from Tecan) for 5 min: • FCA (2C9): Excitation at 410 nm and Emission at 510 nm • ER (1A2): Excitation at 530 nm and Emission at 590 nm • MMC (2D6): Excitation at 410 nm and Emission at 485 nm • BMC (2C19): Excitation at 410 nm and Emission at 465 nm • 7BQ (3A4H): Excitation at 410 nm and Emission at 530 nm • DEF (3A4L): Excitation at 485 nm and Emission at 530 nm Plotting of inhibition of substrate production against compound concentration allowed the determination of IC50 values.

[2] = Physical stability (hydrolysis) in phosphate buffer at various pHs; type: physicochemical
Description: The assay was designed for determining physical stability of compound in buffer at various pHs. Compound of Formula (I) was dissolved in DMSO at 1 mg/mL. Phosphate buffer (PBS) was prepared by mixing K2HPO4 50 mM and KH2PO4 50 mM solutions to obtain 4 buffers at pH 6.0, 7.0, 7.5, 8.0.
Stability studies were conducted at room temperature, and were started by the addition of 8 μL of DMSO solution to 792 μL of PBS 50 mM at pH 6.0, 7.0, 7.5 or 8.0 (1% DMSO). 75 μl of mixture was taken at 0, 1, 2, 4 and 24 h and 225 μL acetonitrile containing internal standard was added.
2 μL of samples were injected into the liquid chromatography system and eluted with a Ascentis C18 column (50×2.1 mm id, 2.7 μm) and with 0.1% formic acid in water (A) and 0.1% formic acid in acetonitrile (B), using the following elution 2 min gradient: 5 to 95% B over 1.2 min, 95% B over 0.6 min and 0.1 min for re-equilibrate column, at 0.5 mL/min at 50° C.
Samples were analysed by Mass Spectrometry with an electrospray source and in positive mode and with following mass transitions: • Compound of Formula (I): 625 to 368 • Monoester of CPHPC: 483 to 226 • CPHPC: 341 to 226

[3] = Intestinal microsomal stability; type: in vitro ADME; details: up to 30 minutes, 37° C.
Description: The assay was designed for determining stability of compound in microsomal matrix. Compound (Compound of Formula (I)) was dissolved in DMSO at 1 mg/mL. Daughter solution was prepared in methanol/water (50/50) at 30.3 ng/mL. Microsomes (from Xenotech) were diluted at 0.625 mg proteins per mL in phosphate buffer 50 mM pH 7.4.
Pre-Incubation consisted of warming microsomal solution 395 μL with 100 μL NaHCO3 (2%) at 37° C. for 7 min. Incubation was started with the addition of 5 μL of daughter solution. 50 μL aliquots of mixture were taken at 0, 3, 6, 12 and 30 min and quenched with 150 μL acetonitrile containing internal standard.
After 10 min centrifugation at 4000 rpm, 2 μL of samples were injected into the liquid chromatography system and eluted on a Ascentis C18 column (50×2.1 mm id, 2.7 μm) with 0.1% formic acid in water (A) and 0.1% formic acid in acetonitrile (B), using the following 2 minute elution gradient: 5 to 95% B over 1.2 min, 95% B over 0.6 min and 0.1 min for re-equilibrate column, at 0.5 mL/min at 50° C.
Samples were analysed by Mass Spectrometry with an electrospray source, in positive mode and with following mass transitions: • Compound of Formula (I): 625 to 368 • Monoester of CPHPC: 483 to 226 • CPHPC: 341 to 226
Controls were made to calculate percentage of disappearance of parent but also appearance of suspected metabolite, i.e. monoester and diacidic form.

CYP2C9 = molecular target: T3, CYP2C9 (Homo sapiens, UniProt P11712); assay: Cytochrome p450 inhibition, bactosomes, fluorogenic substrate FCA; type: in vitro ADME
T3 construct: purchased Cypex; host or cells: bactosomes (bacterial membranes)
T3 sequence (P11712 whole entry): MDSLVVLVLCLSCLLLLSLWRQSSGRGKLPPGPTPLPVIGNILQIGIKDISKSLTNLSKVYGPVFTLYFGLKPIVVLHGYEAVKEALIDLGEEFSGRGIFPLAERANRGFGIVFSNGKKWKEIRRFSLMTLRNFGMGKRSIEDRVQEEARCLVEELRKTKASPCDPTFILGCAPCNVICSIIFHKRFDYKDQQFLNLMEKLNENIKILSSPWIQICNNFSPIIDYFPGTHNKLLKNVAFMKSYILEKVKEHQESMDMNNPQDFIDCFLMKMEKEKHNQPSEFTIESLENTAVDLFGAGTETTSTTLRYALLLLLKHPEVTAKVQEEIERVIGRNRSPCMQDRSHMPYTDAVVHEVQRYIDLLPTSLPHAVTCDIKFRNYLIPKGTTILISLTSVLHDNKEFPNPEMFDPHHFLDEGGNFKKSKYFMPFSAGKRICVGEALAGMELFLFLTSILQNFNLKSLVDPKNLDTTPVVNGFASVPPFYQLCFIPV
Description: as §1

CYP2C19 = molecular target: T4, CYP2C19 (Homo sapiens, UniProt P33261); assay: Cytochrome p450 inhibition, bactosomes, fluorogenic substrate BMC; type: in vitro ADME
T4 construct: purchased Cypex; host or cells: bactosomes (bacterial membranes)
T4 sequence (P33261 whole entry): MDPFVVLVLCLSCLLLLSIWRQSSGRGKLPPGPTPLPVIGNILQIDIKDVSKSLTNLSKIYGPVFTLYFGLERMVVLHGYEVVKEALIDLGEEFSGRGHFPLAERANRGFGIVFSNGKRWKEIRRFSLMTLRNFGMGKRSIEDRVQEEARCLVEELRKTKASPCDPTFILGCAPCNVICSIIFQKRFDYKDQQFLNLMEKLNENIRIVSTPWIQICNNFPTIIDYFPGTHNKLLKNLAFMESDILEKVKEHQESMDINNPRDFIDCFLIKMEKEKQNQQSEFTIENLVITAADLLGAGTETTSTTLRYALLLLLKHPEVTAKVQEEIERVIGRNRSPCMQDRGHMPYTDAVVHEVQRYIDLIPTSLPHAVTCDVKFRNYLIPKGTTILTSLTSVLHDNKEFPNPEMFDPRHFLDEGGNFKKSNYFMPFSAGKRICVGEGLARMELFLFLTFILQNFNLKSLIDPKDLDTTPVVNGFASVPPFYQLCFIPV
Description: as §1

CYP1A2 = molecular target: T5, CYP1A2 (Homo sapiens, UniProt P05177); assay: Cytochrome p450 inhibition, bactosomes, fluorogenic substrate ER; type: in vitro ADME
T5 construct: purchased Cypex; host or cells: bactosomes (bacterial membranes)
T5 sequence (P05177 1-516): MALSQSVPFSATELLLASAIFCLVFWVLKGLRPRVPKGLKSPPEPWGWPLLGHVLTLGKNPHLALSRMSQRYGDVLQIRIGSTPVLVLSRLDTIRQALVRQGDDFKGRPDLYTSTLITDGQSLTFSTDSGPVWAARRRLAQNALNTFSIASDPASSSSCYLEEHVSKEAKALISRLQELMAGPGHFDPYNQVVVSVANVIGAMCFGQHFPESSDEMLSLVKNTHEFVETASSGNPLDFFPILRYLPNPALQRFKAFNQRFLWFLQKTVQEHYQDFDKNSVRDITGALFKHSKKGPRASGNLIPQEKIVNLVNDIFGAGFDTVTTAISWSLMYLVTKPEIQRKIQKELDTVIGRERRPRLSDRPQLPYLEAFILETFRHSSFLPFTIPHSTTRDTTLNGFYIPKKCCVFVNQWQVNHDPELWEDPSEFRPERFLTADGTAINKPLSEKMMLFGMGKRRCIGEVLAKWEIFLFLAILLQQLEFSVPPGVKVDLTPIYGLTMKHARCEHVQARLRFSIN
Description: as §1

circulating SAP = molecular target: T6, circulating SAP (Homo sapiens, UniProt P02743); details: systemic amyloidosis patients, for as long as the drug was administered; cited from earlier work
T6 construct: host or cells: patients' plasma (in vivo)
T6 sequence (P02743 20-223): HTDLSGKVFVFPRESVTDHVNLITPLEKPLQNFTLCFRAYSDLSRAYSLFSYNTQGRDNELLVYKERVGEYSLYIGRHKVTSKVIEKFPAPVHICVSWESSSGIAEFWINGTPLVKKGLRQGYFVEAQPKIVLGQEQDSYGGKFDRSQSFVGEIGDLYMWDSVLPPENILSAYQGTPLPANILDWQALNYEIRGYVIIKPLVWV

SAP = molecular target: T7, SAP (Homo sapiens, UniProt P02743); details: cited from earlier work
T7 construct: reduces the CSF SAP concentration from 2-30 μg/L to <0.1 μg/L in patients with Alzheimer's disease; host or cells: patients' plasma and cerebrospinal fluid (in vivo)
T7 sequence (P02743 20-223): as above

[4] = very low and variable; cited from earlier work
[5] = substrate DEF, read-out: IC50 CYP3A4 (DEF)

O=C(OCOC(=O)[C@H]1CCCN1C(=O)CCCCC(=O)N1CCC[C@@H]1C(=O)OCOC(=O)C1CCOCC1)C1CCOCC1 [Compound of Formula (I), (2R,2′R)-bis(((tetrahydro-2H-pyran-4-carbonyl)oxy)methyl) 1,1′-adipoylbis(pyrrolidine-2-carboxylate)]
IC50 (CYP2D6): > 33 µM
solubility at 4 h ([1]; FaSSIF (Simulated Fasted State Intestinal Fluid pH 6.5)): 1.04 mg/mL
solubility at 4 h ([1]; FeSSIF (Simulated Fed State Intestinal Fluid pH 6.5)): 0.599 mg/mL
solubility at 4 h ([1]; SGF (Simulated Gastric Fluid pH 1.6)): 0.577 mg/mL
solubility at 4 h ([1]; water (purified water), Water): 0.574 mg/mL
IC50 (CYP3A4; substrate 7BQ, read-out: IC50 CYP3A4 (7BQ)): > 33 µM
IC50 (CYP3A4; [5]): > 33 µM
sensitivity to hydrolysis at different pH (in words) ([2]; PBS pH6 to pH8, room temperature): less sensitive to hydrolysis for a pH below 7.5
compound hydrolysed after 24 h ([2]; acidic environment (pH less than 7.0), PBS, room temperature, 24 h): Less than 20%
rate of hydrolysis in human intestinal microsomes (in words) [3]: low rate of hydrolysis
IC50 (CYP2C9): > 33 µM
IC50 (CYP2C19): > 33 µM
IC50 (CYP1A2): > 33 µM

O=C(O)[C@H]1CCCN1C(=O)CCCCC(=O)N1CCC[C@@H]1C(=O)O [CPHPC, (R)-1-[6-[(R)-2-carboxy-pyrrolidin-1-yl]-6-oxo-hexanoyl]pyrrolidine-2-carboxylic acid]
depletion of circulating SAP (in words) (circulating SAP): almost complete depletion
CSF SAP concentration after depletion by CPHPC (SAP; CSF, patients with Alzheimer's disease, from 2-30 μg/L): < 0.1 µg/L
plasma SAP after depletion by CPHPC (SAP; plasma, from the normal 20-50 mg/L): < 0.1 mg/L
oral bioavailability [4]: 3-5%

O=C(OCOC(=O)[C@H]1CCCN1C(=O)CCCCC(=O)N1CCC[C@@H]1C(=O)O)C1CCOCC1 [mono-ester derivative, (R)-1-(6-oxo-6-((R)-2-((((tetrahydro-2H-pyran-4-carbonyl)oxy)methoxy)carbonyl)pyrrolidin-1-yl)hexanoyl)pyrrolidine-2-carboxylic acid]
IC50 (CYP2D6): > 33 µM
IC50 (CYP3A4; [5]): > 33 µM
IC50 (CYP2C9): > 33 µM
IC50 (CYP2C19): > 33 µM
IC50 (CYP1A2): > 33 µM

CC(OC(=O)[C@H]1CCCN1C(=O)CCCCC(=O)N1CCC[C@@H]1C(=O)OC(C)OC(=O)C(C)(C)C)OC(=O)C(C)(C)C (stereo partly drawn) [Comparator Compound, (2R,2′R)-bis(1-(pivaloyloxy)ethyl) 1,1′-adipoylbis(pyrrolidine-2-carboxylate), reference compound]
inhibition of CYP3A4-7BQ (in words) (CYP3A4; substrate 7BQ): significant inhibition
inhibition of CYP3A4-DEF (in words) (CYP3A4; substrate DEF): significant inhibition
